Drawing on US20240083857A1, “2-Methyl-Quinazolines” (Bayer Pharma Aktiengesellschaft, priority 2017, published 2024), this text covers IC50 and inhibition for 18 compounds.

Assay [1] deals with human SOS1 (loading of human K-Ras^G12C-GDP with fluorescent GTP-analog) (Homo sapiens, UniProt Q07889). Description: Biochemical assay 3: K-Ras^G12C activation assay by hSOS1 (HTRF). As to conditions: no GTP; for IC50: read-out: Assay 3 (KRAS-Activation by SOS no GTP) activity expressed as IC50; for inhibition at 20 µM: read-out: Assay 3 (KRAS-Activation by SOS no GTP) activity expressed as % inhibition at 20 μM. Background: TR-FRET usually uses a lanthanide donor and a delayed reading to cut background.

Assay [2] has as its target Epidermal Growth Factor Receptor (EGFR) (Homo sapiens (Human), UniProt P00533). The experiment in a line: EGFR kinase assay (TR-FRET). In kind it is biochemical. The note with it: values given in μM; read-out: EGFR kinase inhibition IC50. An outline of the steps:
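Read-out is the 665/620 nm HTRF ratio, from a Tb-cryptate anti-phosphotyrosine antibody and streptavidin-XL665 bound to phosphorylated biotin-peptide substrate. The enzyme, A431-derived EGFR (~3 U/ml), was given 15 min compound pre-binding at 22° C in Hepes pH 7.0 with Mg2+/Mn2+ before reaction.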

Sequence of Epidermal Growth Factor Receptor (EGFR) (P00533 25-1210): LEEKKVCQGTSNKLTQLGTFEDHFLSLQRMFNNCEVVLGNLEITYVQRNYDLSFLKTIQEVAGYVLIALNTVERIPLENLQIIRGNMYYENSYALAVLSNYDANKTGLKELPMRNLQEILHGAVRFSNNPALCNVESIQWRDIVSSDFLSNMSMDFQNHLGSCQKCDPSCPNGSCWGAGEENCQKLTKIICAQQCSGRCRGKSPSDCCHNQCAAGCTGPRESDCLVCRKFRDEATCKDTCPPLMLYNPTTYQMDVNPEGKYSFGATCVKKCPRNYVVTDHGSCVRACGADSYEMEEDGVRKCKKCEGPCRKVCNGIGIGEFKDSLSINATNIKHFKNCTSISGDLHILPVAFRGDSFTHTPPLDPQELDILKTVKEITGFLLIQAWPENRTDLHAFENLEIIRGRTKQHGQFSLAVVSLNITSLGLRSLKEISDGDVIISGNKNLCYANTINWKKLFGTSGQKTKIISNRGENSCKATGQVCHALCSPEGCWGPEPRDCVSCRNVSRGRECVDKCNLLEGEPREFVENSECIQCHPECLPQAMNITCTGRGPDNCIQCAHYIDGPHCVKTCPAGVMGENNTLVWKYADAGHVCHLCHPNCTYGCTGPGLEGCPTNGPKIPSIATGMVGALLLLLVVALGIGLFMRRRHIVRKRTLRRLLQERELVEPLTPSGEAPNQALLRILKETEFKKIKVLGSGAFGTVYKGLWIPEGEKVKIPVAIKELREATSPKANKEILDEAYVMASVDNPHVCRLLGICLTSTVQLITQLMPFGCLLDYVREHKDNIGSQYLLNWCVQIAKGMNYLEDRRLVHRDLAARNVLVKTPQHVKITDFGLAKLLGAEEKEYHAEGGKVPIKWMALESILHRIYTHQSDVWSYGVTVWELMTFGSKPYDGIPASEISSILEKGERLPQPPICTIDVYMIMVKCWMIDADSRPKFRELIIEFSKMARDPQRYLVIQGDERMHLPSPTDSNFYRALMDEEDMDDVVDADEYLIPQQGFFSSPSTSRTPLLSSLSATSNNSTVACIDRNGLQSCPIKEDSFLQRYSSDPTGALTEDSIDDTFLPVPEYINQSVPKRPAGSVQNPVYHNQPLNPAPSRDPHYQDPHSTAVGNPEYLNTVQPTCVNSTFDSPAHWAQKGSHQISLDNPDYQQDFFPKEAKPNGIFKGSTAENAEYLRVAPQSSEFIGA

For the compound `COc1cc2nc(C)nc(NC(C)c3ccc(-c4cnn(CCN5CCCC5)c4)s3)c2cc1OC` (stereo not drawn) [Example 220, 6,7-dimethoxy-2-methyl-N-[1-(5-{1-[2-(pyrrolidin-1-yl)ethyl]-1H-pyrazol-4-yl}thiophen-2-yl)ethyl]quinazolin-4-amine], the values for the IC50 in assay [1] and in assay [2] were 1.01 µM and greater than 20 µM, respectively.
Regarding `COc1cc2nc(C)nc(NC(C)c3ccc(F)c4[nH]ncc34)c2cc1OC` (stereo not drawn) [Example 5, N-[1-(7-fluoro-1H-indazol-4-yl)ethyl]-6,7-dimethoxy-2-methylquinazolin-4-amine], the IC50 (as a rule, the concentration that inhibits the measured activity by half) is 5.06 µM in assay [1] and greater than 20 µM in assay [2].
Turning to `COc1cc2nc(C)nc(NC(C)c3csc(-c4cnn(CCO)c4)c3)c2cc1OC` (stereo not drawn) [Example 251, 2-[4-(4-{1-[(6,7-dimethoxy-2-methylquinazolin-4-yl)amino]ethyl}thiophen-2-yl)-1H-pyrazol-1-yl]ethanol], in assay [1], the inhibition – broadly, the drop in the measured response relative to a control, in per cent – at 20 µM was 52%. The IC50 in assay [2] was greater than 20 µM.
In the same order, the values of `COc1cc2nc(C)nc(NC(C)c3cccc4cccnc34)c2cc1OC` (stereo not drawn) [Example 217, 6,7-dimethoxy-2-methyl-N-[1-(quinolin-8-yl)ethyl]quinazolin-4-amine] are 45% and greater than 20 µM.
With `COc1cc2nc(C)nc(N[C@H](C)c3cccc(Br)c3)c2cc1OC` [Example 191, N-[(1R)-1-(3-bromophenyl)ethyl]-6,7-dimethoxy-2-methylquinazolin-4-amine], the IC50 in assay [1] is 0.382 µM; in assay [2], greater than 20 µM.
For `Cc1nc(N[C@H](C)c2cccc3ccccc23)c2ccccc2n1` [Example 186, 2-methyl-N-[(1R)-1-(naphthalen-1-yl)ethyl]quinazolin-4-amine], the inhibition at 20 µM in assay [1] was determined as 22%. For the same compound, the IC50 in assay [2] is greater than 20 µM.
Consider `COc1cc2nc(C)nc(NC(C)c3ccc(-c4ccccc4CN4CCC(N(C)C)C4)s3)c2cc1OC` (stereo not drawn) [Example 238, N-{1-[5-(2-{[3-(dimethylamino)pyrrolidin-1-yl]methyl}phenyl)thiophen-2-yl]ethyl}-6,7-dimethoxy-2-methylquinazolin-4-amine], for which the IC50 is 0.216 µM in assay [1] and greater than 20 µM in assay [2].
With `COc1cc2nc(C)nc(N[C@H](C)c3cccc(C(N)=O)c3)c2cc1OC` [Example 199, 3-{(1R)-1-[(6,7-dimethoxy-2-methylquinazolin-4-yl)amino]ethyl}benzamide], the IC50 in assay [1] was 6.7 µM; in assay [2], greater than 20 µM.
In the same order, the values of `COc1cc2nc(C)nc(NC(C)c3csc(-c4cnc5n4CCC5)c3)c2cc1OC` (stereo not drawn) [Example 253, N-{1-[5-(6,7-dihydro-5H-pyrrolo[1,2-a]imidazol-3-yl)thiophen-3-yl]ethyl}-6,7-dimethoxy-2-methylquinazolin-4-amine] are 5.8 µM and greater than 20 µM.
In the same order, the values of `COC(=O)c1ccccc1-c1ccc(C(C)Nc2nc(C)nc3cc(OC)c(OC)cc23)s1` (stereo not drawn) [Example 178, methyl 2-(5-{1-[(6,7-dimethoxy-2-methylquinazolin-4-yl)amino]ethyl}thiophen-2-yl)benzoate] are 7.12 µM and greater than 20 µM.
Taken in the same sequence, the figures for `COc1cc2nc(C)nc(NC(C)c3ccc(-c4cccc5[nH]ncc45)s3)c2cc1OC` (stereo not drawn) [Example 247, N-{1-[5-(1H-indazol-4-yl)thiophen-2-yl]ethyl}-6,7-dimethoxy-2-methylquinazolin-4-amine] were 2.7 µM and greater than 20 µM.
As to `CNCc1ccccc1-c1ccc(C(C)Nc2nc(C)nc3cc(OC)c(OC)cc23)s1` (stereo not drawn) [Example 250, 6,7-dimethoxy-2-methyl-N-[1-(5-{2-[(methylamino)methyl]phenyl}thiophen-2-yl)ethyl]quinazolin-4-amine], the IC50 is 0.0704 µM in assay [1] and greater than 20 µM in assay [2].
Regarding `COc1cc2nc(C)nc(NC(C)c3ccc(-c4ccccc4CO)s3)c2cc1OC` (stereo not drawn) [Example 244, [2-(5-{1-[(6,7-dimethoxy-2-methylquinazolin-4-yl)amino]ethyl}thiophen-2-yl)phenyl]methanol], the IC50 in assay [1] was 0.444 µM; in assay [2], greater than 20 µM.
With `COc1cc2nc(C)nc(N[C@H](C)c3ccc(C)cc3)c2cc1OC` [Example 195, 6,7-dimethoxy-2-methyl-N-[(1R)-1-(4-methylphenyl)ethyl]quinazolin-4-amine], the results for the IC50 in assay [1] and in assay [2] were 0.749 µM and greater than 20 µM, respectively.
For `COc1cc2nc(C)nc(N[C@H](C)c3ccccc3)c2cc1OC` [Example 206, 6,7-dimethoxy-2-methyl-N-[(1R)-1-phenylethyl]quinazolin-4-amine], the figures for the IC50 in assay [1] and in assay [2] were 1.75 µM and greater than 20 µM, respectively.
`COc1cc2nc(C)nc(NC(C)c3cccc4[nH]nc(C)c34)c2cc1OC` (stereo not drawn) [Example 13, 6,7-dimethoxy-2-methyl-N-[1-(3-methyl-1H-indazol-4-yl)ethyl]quinazolin-4-amine]: the values for the IC50 in assay [1] and in assay [2] were 7.73 µM and greater than 20 µM, respectively.
For `COc1cc2nc(C)nc(NC(C)c3csc(Br)c3)c2cc1OC` (stereo not drawn) [Example 239, N-[1-(5-bromothiophen-3-yl)ethyl]-6,7-dimethoxy-2-methylquinazolin-4-amine], the IC50 in assay [1] was 14.3 µM; in assay [2] it was greater than 20 µM.
Taken in the same sequence, the figures for `COc1cc2nc(C)nc(NC(C)c3cccc4cnn(C)c34)c2cc1OC` (stereo not drawn) [Example 10, 6,7-dimethoxy-2-methyl-N-[1-(1-methyl-1H-indazol-7-yl)ethyl]quinazolin-4-amine] were 6.14 µM and greater than 20 µM.
